Data set [1] deals with T1, glycerol kinase (GK, His-GK) (Haloferax volcanii, UniProt D4GYI5).
T1 construct: gene glpK; N-terminal His-tagged GK (His-GK)
T1 sequence (D4GYI5 1-510): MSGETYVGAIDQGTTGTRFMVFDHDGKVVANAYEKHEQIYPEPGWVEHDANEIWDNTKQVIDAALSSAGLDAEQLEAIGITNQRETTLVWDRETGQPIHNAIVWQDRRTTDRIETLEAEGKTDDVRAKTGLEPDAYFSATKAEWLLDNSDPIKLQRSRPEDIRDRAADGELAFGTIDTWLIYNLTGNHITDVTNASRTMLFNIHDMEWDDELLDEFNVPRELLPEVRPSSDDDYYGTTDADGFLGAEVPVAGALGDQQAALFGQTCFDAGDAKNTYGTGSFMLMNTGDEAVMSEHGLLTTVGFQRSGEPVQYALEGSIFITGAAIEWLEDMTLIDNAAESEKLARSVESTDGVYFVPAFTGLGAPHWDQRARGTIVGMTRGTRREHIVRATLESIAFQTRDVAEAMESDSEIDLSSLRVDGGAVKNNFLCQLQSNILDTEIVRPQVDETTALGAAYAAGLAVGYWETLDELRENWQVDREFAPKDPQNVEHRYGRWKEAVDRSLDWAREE
As to the kind of experiment: coupled enzyme kinetics of purified His-GK (Hill fit, n = […]); supported by DSF shift ([…] to […]°C) and SEC dimer-to-tetramer shift. It is filed as biochemical.

The target in data set [2] is T1, glycerol kinase (GK, His-GK). In words: coupled enzyme kinetics of purified His-GK (Hill fit, n = […]); further DSF stabilization together with glycerol ([…]°C). It is filed as biochemical.
Data set [3] concerns the molecule itself. In words: SEC; Superdex 200 Increase 10/300 GL, 50 mM HEPES pH 7.5, 2 M NaCl, 1 mM DTT, without glycerol; 0.3 mL/min; Ni2+-NTA-purified His-GK dialysed against the same buffer; mass from Kav against standards.
Data set [4] deals with the molecule itself. In words: SEC; Superdex 200 Increase 10/300 GL, 50 mM HEPES pH 7.5, 2 M NaCl, 1 mM DTT, with 10% (vol/vol) glycerol; 0.3 mL/min; Ni2+-NTA-purified His-GK dialysed against the same buffer; the isolated tetramer was also kept overnight at 4°C and run again; mass from Kav against standards. On the technique in general: SEC sorts molecules by how far they enter the pores of the column.

The text below walks through data of PMC12366361, “Biochemical properties of glycerol kinase from the hypersaline-adapted archaeon Haloferax volcanii” (Applied and Environmental Microbiology, 2025).

The term Kd denotes the constant that tells how readily two partners part at equilibrium. Consider `OCC(O)CO` [glycerol], for which the Kd in data set [1] amounted to 1440 ± 160 µM.
Take `Nc1ncnc2c1ncn2[C@@H]1O[C@H](COP(=O)(O)OP(=O)(O)OP(=O)(O)O)[C@@H](O)[C@H]1O` [ATP]: binding in data set [2] was characterised by a dissociation constant (Kd) of 1600 ± 80 µM.

B1: Haloferax volcanii glycerol kinase fused to an N-terminal polyhistidine tag (His-GK) (enzyme, UniProt D4GYI5 1-510, looked up)
chain: MSGETYVGAIDQGTTGTRFMVFDHDGKVVANAYEKHEQIYPEPGWVEHDANEIWDNTKQVIDAALSSAGLDAEQLEAIGITNQRETTLVWDRETGQPIHNAIVWQDRRTTDRIETLEAEGKTDDVRAKTGLEPDAYFSATKAEWLLDNSDPIKLQRSRPEDIRDRAADGELAFGTIDTWLIYNLTGNHITDVTNASRTMLFNIHDMEWDDELLDEFNVPRELLPEVRPSSDDDYYGTTDADGFLGAEVPVAGALGDQQAALFGQTCFDAGDAKNTYGTGSFMLMNTGDEAVMSEHGLLTTVGFQRSGEPVQYALEGSIFITGAAIEWLEDMTLIDNAAESEKLARSVESTDGVYFVPAFTGLGAPHWDQRARGTIVGMTRGTRREHIVRATLESIAFQTRDVAEAMESDSEIDLSSLRVDGGAVKNNFLCQLQSNILDTEIVRPQVDETTALGAAYAAGLAVGYWETLDELRENWQVDREFAPKDPQNVEHRYGRWKEAVDRSLDWAREE
notes: calculated His-GK monomer 56.7 kDa; Found by SEC as a homodimer (no glycerol) or as a homodimer plus a homotetramer (10% glycerol); also called GlpK; H. volcanii GK; source: H. volcanii H1207-pJAM4351 grown in GlyMM, purified (Ni2+-NTA resin, then SEC); not shown: His6, N-terminal, kept
What is called stoichiometry N is a count of units in the complex or per binding partner. Consider B1, for which the entries for the “stoichiometry N” value in data set [3] and in data set [4] were 2 and 4, respectively.
